Laboratory results taken from patent US11319324B2, “Pyrazolo-pyrrolo-pyrimidine-dione derivatives as P2X3 inhibitors” (Bayer Aktiengesellschaft, priority 2017, dated 2022).

Key:
Assay type in all cases: cell-based
human P2X3 receptor [1] = target: T1, human P2X3 receptor (Homo sapiens, UniProt P56373); test: Intracellular calcium measurement to assess antagonist activity at human P2X3 receptors (hP2X3 FLIPR); parameters: expressed in transfected cells; host or cells: human astrocytoma 1321N1 (1312N1 [sic]); details: head prints (1321N1); read-out: 1) hP2X3 IC50 [nM] (1321N1)
T1 sequence (P56373 1-397): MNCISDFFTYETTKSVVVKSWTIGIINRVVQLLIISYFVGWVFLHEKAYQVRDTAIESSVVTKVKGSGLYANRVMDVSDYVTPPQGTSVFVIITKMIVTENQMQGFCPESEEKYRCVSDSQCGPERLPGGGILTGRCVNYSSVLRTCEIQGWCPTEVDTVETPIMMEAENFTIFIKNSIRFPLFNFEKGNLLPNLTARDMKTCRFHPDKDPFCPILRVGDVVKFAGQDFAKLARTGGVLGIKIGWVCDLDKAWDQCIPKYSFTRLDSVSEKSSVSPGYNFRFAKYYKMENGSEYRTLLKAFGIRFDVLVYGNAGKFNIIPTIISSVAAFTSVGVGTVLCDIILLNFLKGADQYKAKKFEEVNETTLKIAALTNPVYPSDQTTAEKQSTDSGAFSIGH
Experimental: 1) Intracellular Calcium Measurement to Assess Antagonist Activity at Human P2X3 Receptors (hP2X3 FLIPR)
A fluorescent imaging plate reader (FLEX/FLIPR station; Molecular Devices) was used to monitor intracellular calcium levels using the calcium-chelating dye Fluo-4 (Molecular Probes). The excitation and emission wavelengths used to monitor fluorescence were 470-495 nm and 515-575 nm, respectively. The human astrocytoma […] cells expressing purinergic receptors P2X3 (human) were plated at a density of 15,000 cells/well in collagen—coated 384-well plates approximately 20 hours before beginning the assay. […] The dye supernatant was removed and replaced with 45 μl probenecid buffer (Hank's balanced salt solution, 20 mM HEPES, 0.5 mM CaCl2, 0.5 mM MgCl2, 0.1% BSA, 5 mM probenecid, 10 mM D-glucose monohydrate, pH=7.4). The test compounds were added in a volume of 5 μl and allowed to incubate for 30 min at 37° C. The final assay DMSO concentration is 1%. […] The fluorescence was measured for an interval of 90 sec at 2 sec intervals and analyzed based on the increase in peak relative fluorescence units (RFU) compared to the basal fluorescence. Peak fluorescence was used to determine the response to agonist obtained at each concentration of test compound by the following equation: Response=100*(RFU(test compound)−RFU(control))/(RFU(DMSO)−RFU(control))
The Examples were tested in triplicates per plate and mean values were plotted in Excel XLFit to determine IC50 values at the human P2X3 and human P2X2/3 receptors, percentage of maximal inhibition and the Hill coefficients.

human P2X3 receptor [2] = target: T1, human P2X3 receptor; test: Intracellular calcium measurement, antagonist activity at human P2X3 receptors (hP2X3 1321N1), Fluo8; parameters: expressed in transfected cells; host or cells: human astrocytoma 1321N1 (1312N1 [sic]); details: column 3); 1321N1 cells, human P2X3, Fluo8, agonist ATP at EC50
In short: (§1)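 Inhibition of ATP-triggered Ca2+ transients is measured in 1321N1 cells expressing P2X3 homotrimers or P2X2/3 heterotrimers.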

human P2X2/3 receptors = target: T2, human P2X2/3 receptors (Homo sapiens, UniProt P56373+Q9UBL9); test: Intracellular calcium measurement, antagonist activity at human P2X2/3 receptors (hP2X23 1321N1), Fluo8; details: for IC50: column 4); 1321N1 cells, human P2X2/3, Fluo8, agonist ATP at EC50; read-out: 4) hP2X2/3 IC50 [nM] (1321N1); for hP2X23/hP2X3* Selectivity (1321N1): ratio of column 4) hP2X2/3 to column 3) hP2X3, 1321N1
T2 construct: expressed in transfected cells; host or cells: human astrocytoma 1321N1 (1312N1 [sic])
T2 sequence (P56373 1-397): T1 sequence (P56373 1-397)
T2 sequence (Q9UBL9 1-471): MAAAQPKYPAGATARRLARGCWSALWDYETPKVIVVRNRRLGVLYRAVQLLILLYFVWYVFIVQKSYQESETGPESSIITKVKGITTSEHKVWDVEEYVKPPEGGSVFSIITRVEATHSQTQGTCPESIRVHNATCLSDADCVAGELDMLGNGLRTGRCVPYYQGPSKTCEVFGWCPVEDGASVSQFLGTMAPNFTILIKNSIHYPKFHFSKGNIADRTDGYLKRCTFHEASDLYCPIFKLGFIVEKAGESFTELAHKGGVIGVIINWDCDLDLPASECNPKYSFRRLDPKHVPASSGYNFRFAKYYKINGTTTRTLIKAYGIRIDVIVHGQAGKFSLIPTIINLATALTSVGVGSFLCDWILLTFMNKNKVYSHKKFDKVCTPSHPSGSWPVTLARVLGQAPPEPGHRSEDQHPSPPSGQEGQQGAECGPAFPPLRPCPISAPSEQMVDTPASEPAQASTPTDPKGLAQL
In short: as §1

human P2X3 receptor [3] = target: T1, human P2X3 receptor; test: Intracellular calcium measurement to assess antagonist activity at human P2X3 receptors (hP2X3 CHO), photina luminescence; parameters: expressed in transfected cells; host or cells: Chinese hamster ovary (CHO) cells; details: column 2), CHO cells, agonist α,β-methylene-ATP at EC50
In short: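 CHO cells stably expressing human P2X3 and mitochondrial photina, plated the day before at 30 °C, then loaded 3 h at 37 °C in 2 mM Ca-tyrode buffer with 5 μg/ml coelenterazine. Agonist-evoked calcium luminescence read immediately; inhibition seen as signal decrease.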

| SMILES | IC50 (human P2X3 receptor [1]) [nM] | IC50 (human P2X3 receptor [2]) [nM] | IC50 (human P2X2/3 receptors) [nM] | hP2X23/hP2X3* Selectivity (1321N1) (human P2X2/3 receptors) | IC50 (human P2X3 receptor [3]) [nM] |
| --- | --- | --- | --- | --- | --- |
| CC(C)c1cc2n(CC(=O)Nc3ccc(F)cn3)c3c(c(=O)n2n1)CN(C(C)C)C3=O [Example 7] | 28 | 48 | 8000 | 167 | 71 |
| CC(C)c1cc2n(CC(=O)Nc3ccc(Cl)cn3)c3c(c(=O)n2n1)CN(C(C)C)C3=O [Example 8] | 50 | 48 | 3650 | 76 | 51 |
| CC(C)(C)c1cc2n(CC(=O)Nc3ccc(F)cn3)c3c(c(=O)n2n1)CN(CC1CC1)C3=O [Example 13] | 21 | 27 | 5650 | 212 | 51 |
| CC[C@@H](C)N1Cc2c(n(CC(=O)Nc3ccc(F)cn3)c3cc(C(F)(F)F)nn3c2=O)C1=O [Example 14] | 30 | 59 | 11500 | 194 | 60 |
| CC[C@@H](C)N1Cc2c(n(CC(=O)Nc3ccc(Cl)cn3)c3cc(C(F)(F)F)nn3c2=O)C1=O [Example 15] | 21 | 53 | 4650 | 88 | 49 |
| CC[C@@H](C)N1Cc2c(n(CC(=O)Nc3ccc(C)cn3)c3cc(C(F)(F)F)nn3c2=O)C1=O [Example 16] | 100 | > 16600 | > 100000 | >6 | 320 |
| CC(C)(C)c1cc2n(CC(=O)Nc3ccc(F)cn3)c3c(c(=O)n2n1)CN(C1CCC1)C3=O [Example 17] | 31 | 53 | > 18100 | >345 | 72 |
| CC(C)(C)c1cc2n(CC(=O)Nc3ccc(Cl)cn3)c3c(c(=O)n2n1)CN(C1CCC1)C3=O [Example 18] | 69 | 124 | 2500 | 20 | 106 |
| Cc1ccc(NC(=O)Cn2c3c(c(=O)n4nc(C(C)(C)C)cc24)CN(C2CCC2)C3=O)nc1 [Example 19] | 379 | 740 | 8050 | 11 | 430 |
| CC[C@H](C)N1Cc2c(n(CC(=O)Nc3ccc(F)cn3)c3cc(C(F)(F)F)nn3c2=O)C1=O [Example 20] | 312 | 537 | > 22000 | >41 | 375 |
| CC[C@H](C)N1Cc2c(n(CC(=O)Nc3ccc(C)cn3)c3cc(C(F)(F)F)nn3c2=O)C1=O [Example 21] | 164 | 233 | 12400 | 53 | 180 |
| CC[C@H](C)N1Cc2c(n(CC(=O)Nc3ccc(Cl)cn3)c3cc(C(F)(F)F)nn3c2=O)C1=O [Example 22] | 56 | 82 | 2850 | 35 | 81 |

The next lines start with the values.

| IC50 (human P2X3 receptor [1]) [nM] | IC50 (human P2X3 receptor [2]) [nM] | IC50 (human P2X2/3 receptors) [nM] | hP2X23/hP2X3* Selectivity (1321N1) (human P2X2/3 receptors) | IC50 (human P2X3 receptor [3]) [nM] | SMILES |
| --- | --- | --- | --- | --- | --- |
| 22 | 35 | 4900 | 138 | 35 | CC(C)N1Cc2c(n(CC(=O)Nc3ccc(F)cn3)c3cc(C(C)(C)C)nn3c2=O)C1=O [Example 1, 2-[2-tert-butyl-5,8-dioxo-6-(propan-2-yl)-5,6,7,8-tetrahydro-4H-pyrazolo[1,5-a]pyrrolo[3,4-d]pyrimidin-4-yl]-N-(5-fluoropyridin-2-yl)acetamide] |
| 219 | 185 | > 22000 | >119 | 135 | CC(C)N1Cc2c(n(CC(=O)Nc3ccccn3)c3cc(C(C)(C)C)nn3c2=O)C1=O [Example 2] |
| 32 | 37 | 2850 | 78 | 147 | CC(C)N1Cc2c(n(CC(=O)Nc3ccc(Cl)cn3)c3cc(C(C)(C)C)nn3c2=O)C1=O [Example 3] |
| 147 | 177 | 9600 | 54 | 345 | Cc1ccc(NC(=O)Cn2c3c(c(=O)n4nc(C(C)(C)C)cc24)CN(C(C)C)C3=O)nc1 [Example 4] |
| 107 | 263 | > 19900 | >76 | 220 | Cc1ccc(NC(=O)Cn2c3c(c(=O)n4nc(C(C)C)cc24)CN(C(C)C)C3=O)nc1 [Example 9] |
| 24 | 317 | > 32000 | >101 | 38 | CC(C)[C@H](C)N1Cc2c(n(CC(=O)Nc3ccc(F)cn3)c3cc(C(C)(C)C)nn3c2=O)C1=O [Example 10] |
| 376 | 657 | > 20600 | >31 | 750 | Cc1ccc(NC(=O)Cn2c3c(c(=O)n4nc(C(C)(C)C)cc24)CN([C@@H](C)C(C)C)C3=O)nc1 [Example 11] |
| 59 | 225 | 8800 | 39 | 110 | CC(C)[C@H](C)N1Cc2c(n(CC(=O)Nc3ccc(Cl)cn3)c3cc(C(C)(C)C)nn3c2=O)C1=O [Example 12] |
